# Reference: ChEMBL document CHEMBL5321213, “Nicolaioidesin C: An Antiausterity Agent Shows Promising Antitumor Activity in a Pancreatic Cancer Xenograft Mouse Model” (J Nat Prod, 2023)
# Calls of active or inactive are those of the source. The rule behind the calls is not given here.
# How the values were obtained:
# MIA PaCa-2 [1] = assay: Preferential cytotoxicity against human MIA PaCa-2 cells in nutrient-deprived medium assessed as alteration in cell morphology by measuring leakage of cell components at 5 uM measured after 24 hrs by acridine orange and ethidium bromide dual fluorescent staining based imaging analysis; format: functional
# MIA PaCa-2 [2] = assay: Antitumor activity against human MIA PaCa-2 cells xenografted in athymic BALB/c-nu mouse assessed as fold change in Gly-Leu metabolite level in tumor at 2 mg/kg/day, ip administered five times per week for 4 weeks by LC-MS analysis; format: functional
# MIA PaCa-2 [3] = assay: Antitumor activity against human MIA PaCa-2 cells xenografted in athymic BALB/c-nu mouse assessed as fold change in benzoic acid level in tumor at 2 mg/kg/day, ip administered five times per week for 4 weeks by LC-MS analysis; format: functional
# MIA PaCa-2 [4] = assay: Antitumor activity against human MIA PaCa-2 cells xenografted in athymic BALB/c-nu mouse assessed as fold change in D-ribulose 5-phosphate level in tumor at 2 mg/kg/day, ip administered five times per week for 4 weeks by LC-MS analysis; format: functional
# MIA PaCa-2 [5] = assay: Antitumor activity against human MIA PaCa-2 cells xenografted in athymic BALB/c-nu mouse assessed as fold change in valine level in tumor at 10 mg/kg/day, ip administered five times per week for 4 weeks by LC-MS analysis; format: functional
# MIA PaCa-2 [6] = assay: Antitumor activity against human MIA PaCa-2 cells xenografted in athymic BALB/c-nu mouse assessed as fold change in sphinganine level in tumor at 2 mg/kg/day, ip administered five times per week for 4 weeks by LC-MS analysis; format: functional
# MIA PaCa-2 [7] = assay: Antitumor activity against human MIA PaCa-2 cells xenografted in athymic BALB/c-nu mouse assessed as fold change in glycerol 3-phosphate level in tumor at 2 mg/kg/day, ip administered five times per week for 4 weeks by LC-MS analysis; format: functional
# MIA PaCa-2 [8] = assay: Antitumor activity against human MIA PaCa-2 cells xenografted in athymic BALB/c-nu mouse assessed as fold change in D-glucuronic acid level in tumor at 2 mg/kg/day, ip administered five times per week for 4 weeks by LC-MS analysis; format: functional
# MIA PaCa-2 [9] = assay: Antitumor activity against human MIA PaCa-2 cells xenografted in athymic BALB/c-nu mouse assessed as fold change in hypoxanthine level in tumor at 10 mg/kg/day, ip administered five times per week for 4 weeks by LC-MS analysis; format: functional
# MIA PaCa-2 [10] = assay: Antimetastatic activity in human MIA PaCa-2 cells in DMEM media assessed as inhibition of colony formation at 10 uM incubated for 24 hrs followed by replacement with fresh medium and measured after 10 days by crystal violet staining-based assay relative to control; format: functional
# MIA PaCa-2 [11] = assay: Antitumor activity against human MIA PaCa-2 cells xenografted in athymic BALB/c-nu mouse assessed as fold change in N-acetyl- L-glutamic acid level in tumor at 2 mg/kg/day, ip administered five times per week for 4 weeks by LC-MS analysis; format: functional
# MIA PaCa-2 [12] = assay: Antitumor activity against human MIA PaCa-2 cells xenografted in athymic BALB/c-nu mouse assessed as tumor growth inhibition at 2 mg/kg/day, ip administered five times per week for 4 weeks relative to control; format: functional; settings: MIA PaCa-2, 672 h, read-out: TGI
# PANC-1 = assay: Inhibition of Akt/mTOR signaling pathway in human PANC-1 cells in nutrient-deprived medium assessed as reduction in AKT phosphorylation at S473 residue measured after 6 hrs by Western blot analysis; format: cell-based; settings: dose 5-20 µM
# MIA PaCa-2 [13] = assay: Antitumor activity against human MIA PaCa-2 cells xenografted in athymic BALB/c-nu mouse assessed as fold change in serine level in tumor at 2 mg/kg/day, ip administered five times per week for 4 weeks by LC-MS analysis; format: functional
# MIA PaCa-2 [14] = assay: Antitumor activity against human MIA PaCa-2 cells xenografted in athymic BALB/c-nu mouse assessed as tumor growth inhibition at 10 mg/kg/day, ip administered five times per week for 4 weeks relative to control; format: functional; settings: MIA PaCa-2, 672 h, read-out: TGI
# MIA PaCa-2 [15] = assay: Antitumor activity against human MIA PaCa-2 cells xenografted in athymic BALB/c-nu mouse assessed as fold change in uracil level in tumor at 2 mg/kg/day, ip administered five times per week for 4 weeks by LC-MS analysis; format: functional
# MIA PaCa-2 [16] = assay: Antitumor activity against human MIA PaCa-2 cells xenografted in athymic BALB/c-nu mouse assessed as fold change in desthiobiotin level in tumor at 2 mg/kg/day, ip administered five times per week for 4 weeks by LC-MS analysis; format: functional
# MIA PaCa-2 [17] = assay: Antitumor activity against human MIA PaCa-2 cells xenografted in athymic BALB/c-nu mouse assessed as fold change in 2,6-diaminopimelicacid level in tumor at 2 mg/kg/day, ip administered five times per week for 4 weeks by LC-MS analysis; format: functional
# MIA PaCa-2 [18] = assay: Antitumor activity against human MIA PaCa-2 cells xenografted in athymic BALB/c-nu mouse assessed as fold change in cytidine 5'-monophosphate level in tumor at 2 mg/kg/day, ip administered five times per week for 4 weeks by LC-MS analysis; format: functional
# MIA PaCa-2 [19] = assay: Antitumor activity against human MIA PaCa-2 cells xenografted in athymic BALB/c-nu mouse assessed as fold change in arabinosyl hypoxanthine level in tumor at 2 mg/kg/day, ip administered five times per week for 4 weeks by LC-MS analysis; format: functional
# MIA PaCa-2 [20] = assay: Antitumor activity against human MIA PaCa-2 cells xenografted in athymic BALB/c-nu mouse assessed as fold change in lysine level in tumor at 10 mg/kg/day, ip administered five times per week for 4 weeks by LC-MS analysis; format: functional
# MIA PaCa-2 [21] = assay: Antitumor activity against human MIA PaCa-2 cells xenografted in athymic BALB/c-nu mouse assessed as tumor wet weight at 2 mg/kg/day, ip administered five times per week for 4 weeks (reference value: 368 mg); format: functional
# MIA PaCa-2 [22] = assay: Antitumor activity against human MIA PaCa-2 cells xenografted in athymic BALB/c-nu mouse assessed as reduction in LC3-II level in tumor at 2 to 10 mg/kg/day, ip administered five times per week for 4 weeks by immunohistochemistry analysis; format: functional, organism-based; settings: dose 2-10 mg/kg/day
# MIA PaCa-2 [23] = assay: Antitumor activity against human MIA PaCa-2 cells xenografted in athymic BALB/c-nu mouse assessed as fold change in asparagine level in tumor at 10 mg/kg/day, ip administered five times per week for 4 weeks by LC-MS analysis; format: functional
# MIA PaCa-2 [24] = assay: Antitumor activity against human MIA PaCa-2 cells xenografted in athymic BALB/c-nu mouse assessed as fold change in 1-aminocyclopropanecarboxylicacid level in tumor at 10 mg/kg/day, ip administered five times per week for 4 weeks by LC-MS analysis; format: functional
# MIA PaCa-2 [25] = assay: Inhibition of autophagy in human MIA PaCa-2 cells in nutrient-deprived medium assessed as downregulation of LC3-II protein expression measured after 6 hrs by Western blot analysis; format: functional, cell-based; settings: dose 5-20 µM
# MIA PaCa-2 [26] = assay: Antitumor activity against human MIA PaCa-2 cells xenografted in athymic BALB/c-nu mouse assessed as fold change in tyrosine level in tumor at 10 mg/kg/day, ip administered five times per week for 4 weeks by LC-MS analysis; format: functional
# MIA PaCa-2 [27] = assay: Antitumor activity against human MIA PaCa-2 cells xenografted in athymic BALB/c-nu mouse assessed as fold change in cytidine 5'-monophosphate level in tumor at 10 mg/kg/day, ip administered five times per week for 4 weeks by LC-MS analysis; format: functional
structure (smiles),measurement,setting,value
COc1cc(O)c(C(=O)[C@@H]2CC=C(CCC=C(C)C)C[C@H]2c2ccccc2)c(O)c1,Activity,MIA PaCa-2 [1],Active
same,fold change (FC),MIA PaCa-2 [2],0.45
same,fold change (FC),MIA PaCa-2 [3],0.43
same,fold change (FC),MIA PaCa-2 [4],0.22
same,fold change (FC),MIA PaCa-2 [5],0.47
same,fold change (FC),MIA PaCa-2 [6],1.87
same,fold change (FC),MIA PaCa-2 [7],0.4
same,fold change (FC),MIA PaCa-2 [8],1.03
same,fold change (FC),MIA PaCa-2 [9],0.4
same,inhibition at 10 µM,MIA PaCa-2 [10],88%
same,fold change (FC),MIA PaCa-2 [11],0.45
same,inhibition in vivo at 2 mg/kg/day,MIA PaCa-2 [12],51%
same,inhibition,PANC-1,Dose-Dependent Effect
same,fold change (FC),MIA PaCa-2 [13],0.49
same,inhibition in vivo at 10 mg/kg/day,MIA PaCa-2 [14],68%
same,fold change (FC),MIA PaCa-2 [15],0.29
same,fold change (FC),MIA PaCa-2 [16],0.63
same,fold change (FC),MIA PaCa-2 [17],0.53
same,fold change (FC),MIA PaCa-2 [18],0.4
same,fold change (FC),MIA PaCa-2 [19],0.46
same,fold change (FC),MIA PaCa-2 [20],0.29
same,Activity,MIA PaCa-2 [21],181 mg
same,Activity,MIA PaCa-2 [22],Active
same,fold change (FC),MIA PaCa-2 [23],0.29
same,fold change (FC),MIA PaCa-2 [24],0.61
same,inhibition,MIA PaCa-2 [25],Dose-Dependent Effect
same,fold change (FC),MIA PaCa-2 [26],0.43
same,fold change (FC),MIA PaCa-2 [27],0.31
